Measured values as given in patent US10620188B2, “Using impedance-based cell response profiling to identify putative inhibitors for oncogene addicted targets or pathways” (ACEA Biosciences, Inc., priority 2002, dated 2020).
Like-named read-outs stand apart in the source and are kept apart here.

Assays:
[1] = tested on: SH-SY5Y; experiment: Impedance-based TCRP of SH-SY5Y cells, mutant ALK (F1174L); type: cell-based, human; details: for IC50: mutant ALK (F1174L), long-term (72 hours post compound treatment) CI
Description: (§1) The cell index was normalized at time of compound addition.
The cell index (CI) was normalized at time of compound addition. […] DMSO was served as solvent control.
The cell index was normalized at time of compound addition. DMSO at the same dose was served as solvent control.
(§2) The cell index (CI) was normalized at time of compound addition.

[2] = tested on: H1993; experiment: Impedance-based TCRP of Met addicted H1993 cells (xCelligence); type: cell-based, human; details: for TCRP (Cell Index response): increasing concentrations; for IC50: read-out: IC50 (TCRP)
Protocol: as §1
Cells were treated with ACEA348 (0-10 uM) for 30 min.
as §2
The time-dependent cell response profiles (TCRP) were monitored prior to and after the compound addition using the xCelligence system (ACEA Biosciences/Roche applied sciences).
The Cell index was normalized against the cell index values at a time point just before compound addition. […] EC50 and IC50 of the Met inhibitor can be derived from the CI versus the corresponding log concentration of the inhibitor.

[3] = tested on: 10T1/2 tva-H1047R; experiment: Impedance-based TCRP of 10T1/2 tva-H1047R cells expressing human p110α (H1047R); type: cell-based, mouse; details: 10T1/2 tva-H1047R; serum starved; from 0 to 10 uM
Protocol: (§3) Cells were serum starved for 5 hour. The cell index was normalized at time of compound addition. At the indicated time point of treatment, increasing concentrations of PI103 (0-10 uM) was added to the cells and the cell responses were monitored.
as §2
A mouse fibroblast 10T1/2 expressing the cell-surface receptor TVA, which is specific for subgroup-A avian retroviruses was used. […] A549 is a human lung cancer cell line expressing wild-type p110α. T47D and BT20 are human breast cancer cell lines expressing mutant p110α (T47D) and p110α (P539R/H1047R), respectively.
(§4) Then the normal growth medium (10% FBS) was exchanged with medium containing 0% FBS. The cells were incubated for additional 5 hours before compound treatment. A PI3K inhibitor (PI103) at different concentrations in DMSO was added into wells following the incubation period. The cell status was monitored prior to and after the compound addition using xCelligence system (Roche applied sciences). […] Cell index of the cells treated with solvent DMSO control was used as baseline. The Cell index was normalized against the cell index values at a time point just before compound addition.

[4] = tested on: 10T1/2 tva; experiment: Impedance-based TCRP of control cell line 10T1/2 tva; parameters: species or system mouse; details: 10T1/2 tva control cell line; from 0 to 10 uM
Protocol: as §3, §2
A mouse fibroblast 10T1/2 expressing the cell-surface receptor TVA, which is specific for subgroup-A avian retroviruses was used.
as §4

[5] = tested on: H1975; experiment: EGF-stimulated CI increase in H1975 cells; type: cell-based; details: Homo sapiens
[6] = tested on: A431; experiment: Impedance-based TCRP of A431 cells, constitutive EGFR activation; type: cell-based; details: for IC50: Homo sapiens, read-out: IC50 (TCRP, constitutive activation)
Protocol: as §2
A431 cells were seeded into wells of 96 well E-plate devices (Roche applied sciences) with an initial seeding density of 20,000 cells per well and were pre-incubated in incubator with DMEM medium plus 2% FBS over night. […] DMSO at the same dose was served as solvent control. […] The IC50s derived from this experiment evaluate the inhibition of these inhibitors to this basal activation of EGFR (caused by dimerization without EGF stimulation)

[7] = tested on: A431; experiment: EGF-stimulated CI increase in A431 cells; type: cell-based; details: Homo sapiens
Protocol: A431 cells were seeded at 20,000 cells per well of 96-well E-plate (Roche/ACEA) with 2% fetal bovine serum. The cells were continuously monitored using xCelligence system (Roche/ACEA). […] The cell index was normalized at time of EGF addition.
To further evaluate the efficacies of these EFGR inhibitors, we tested the inhibitory effect of these inhibitors on the EGF stimulated response using impedance-based technology (FIG. 15). In this experiment, A431 cells were seeded at 20,000 cells per well of 96-well E-plate (Roche/ACEA) with 2% fetal bovine serum. The cells were continuously monitored using xCelligence system (Roche/ACEA). […] The cell index was normalized at time of EGF addition.

[8] = tested on: H1975; experiment: Impedance-based TCRP of H1975 cells, constitutive EGFR activation; type: cell-based; details: for IC50: Homo sapiens, read-out: IC50 (TCRP, constitutive activation)
Protocol: as §2
H1975 cells were seeded at 3,000 cells per well of 96-well E-plate (Roche/ACEA) in RPMI1640 medium with 1% fetal bovine serum. […] The cell index (CI) was normalized at time of compound addition.

[9] = target: T1, PDGFRβ (Rattus norvegicus, UniProt Q05030); experiment: Western analysis of PDGFR signaling pathway in C6 cells; type: cell-based
T1 construct: endogenous in cells; host or cells: C6 rat glioma cells

[10] = tested on: HCC827; experiment: Impedance-based TCRP of HCC827 cells, mutant EGFR (Del E746_A750); type: cell-based; details: Homo sapiens, HCC827, 96 h, read-out: IC50 (TCRP)
Protocol: as §2
Kinase inhibitors including EGFR inhibitors at different concentrations in DMSO were added into wells following the incubation period. The cell status was monitored prior to and after the compound addition using xCelligence system (Roche applied sciences). The Cell index was normalized against the cell index values at a time point just before compound addition.

[11] = tested on: C6; experiment: Impedance-based TCRP of PDGFR addicted C6 glioma cells; type: cell-based, rat; details: Rattus norvegicus; C6; Long-term (96 hours post compound treatment) CI; read-out: IC50 (TCRP)
Protocol: as §2
Kinase inhibitors including PDGFR inhibitors at different concentrations in DMSO were added into wells following the incubation period. The cell status was monitored prior to and after the compound addition using xCelligence system (Roche applied sciences). […] The Cell index was normalized against the cell index values at a time point just before compound addition.
IC50 of the PDGFR inhibitor can be derived from the CI versus the corresponding log concentration of the inhibitor.

[12] = NCI-H1975, H1975, inhibitor 1 hour, then EGF 30 ng/ml, Normalized Cell Index at 30 minutes after EGF, estimated, read-out: IC50 (TCRP, ligand stimulated)

T1 sequence (Q05030 32-1097): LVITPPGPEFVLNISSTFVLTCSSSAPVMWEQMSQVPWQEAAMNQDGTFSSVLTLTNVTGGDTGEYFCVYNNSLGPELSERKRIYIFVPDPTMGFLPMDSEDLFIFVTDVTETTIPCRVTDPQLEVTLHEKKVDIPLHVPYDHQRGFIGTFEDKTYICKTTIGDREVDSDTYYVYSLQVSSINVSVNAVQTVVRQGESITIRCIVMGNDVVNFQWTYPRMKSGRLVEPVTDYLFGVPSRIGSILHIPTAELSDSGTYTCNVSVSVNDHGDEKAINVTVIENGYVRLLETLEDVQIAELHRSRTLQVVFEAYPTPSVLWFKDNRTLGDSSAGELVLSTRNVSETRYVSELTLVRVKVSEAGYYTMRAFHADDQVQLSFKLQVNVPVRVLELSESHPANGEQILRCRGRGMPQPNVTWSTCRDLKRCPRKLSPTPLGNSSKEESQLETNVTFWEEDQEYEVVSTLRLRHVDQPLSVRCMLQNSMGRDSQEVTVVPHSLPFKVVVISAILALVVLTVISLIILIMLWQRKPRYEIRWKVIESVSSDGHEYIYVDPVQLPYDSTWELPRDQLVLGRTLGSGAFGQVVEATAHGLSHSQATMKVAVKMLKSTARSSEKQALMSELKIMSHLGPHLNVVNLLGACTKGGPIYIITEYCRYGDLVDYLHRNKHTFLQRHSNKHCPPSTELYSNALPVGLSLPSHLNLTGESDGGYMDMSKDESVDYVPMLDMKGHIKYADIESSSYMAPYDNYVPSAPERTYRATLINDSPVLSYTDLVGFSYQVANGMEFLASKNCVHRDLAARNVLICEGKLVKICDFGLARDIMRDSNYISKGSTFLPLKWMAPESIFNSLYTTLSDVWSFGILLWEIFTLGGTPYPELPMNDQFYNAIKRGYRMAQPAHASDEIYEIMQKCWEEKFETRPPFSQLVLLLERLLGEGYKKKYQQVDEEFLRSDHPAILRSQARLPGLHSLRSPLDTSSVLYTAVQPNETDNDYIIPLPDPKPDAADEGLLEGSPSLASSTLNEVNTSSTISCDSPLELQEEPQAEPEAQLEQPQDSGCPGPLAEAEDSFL

Row | Compound | TCRP (Cell Index response) ([2]; H1993) | TCRP (Cell Index response) [3] | TCRP (Cell Index response) [4] | also measured
1 | COc1cc2ncnc(Nc3cccc(Cl)c3)c2cc1OC [AG1478] |  |  |  | TCRP (Cell Index response) ([1]; 10 uM): None trigged a TCRP representative to that trigger by ALK inhibitors
2 | O=c1[nH]c2ccccc2n1C1CCN(Cc2ccc(-c3nc4cc5[nH]cnc5cc4nc3-c3ccccc3)cc2)CC1 [AKT inhibitor VIII] | None of these inhibitors induced a TCRP similar to PF2341006 | cell index decreases in both the control cell line and H1047R cell line | cell index decreases in both the control cell line and H1047R cell line | 
3 | Cn1c(=O)n(-c2ccc(C(C)(C)C#N)cc2)c2c3cc(-c4cnc5ccccc5c4)ccc3ncc21 [BEZ235] | None of these inhibitors induced a TCRP similar to PF2341006 | triggered 10T1/2-tva-H1047R specific cell index drop | not present in the control cell line 10T1/2-tva | 
4 | CN(C)C/C=C/C(=O)Nc1cc2c(Nc3ccc(F)c(Cl)c3)ncnc2cc1O[C@H]1CCOC1 [BIBW2992] |  |  |  | IC50 ([5]; NCI-H1975, read-out: IC50 (TCRP, ligand stimulated)): ~200 nM
5 | CN([C@@H](Cc1ccc(OS(=O)(=O)c2cccc3cnccc23)cc1)C(=O)N1CCN(c2ccccc2)CC1)S(=O)(=O)c1cccc2cnccc12 [CaM kinase inhibitor] |  | did not introduce significant cell index changes in either cell line | did not introduce significant cell index changes in either cell line | 
6 | C=CC(=O)Nc1cc2c(Nc3ccc(F)c(Cl)c3)ncnc2cc1OCCCN1CCOCC1 [Canertinib] |  |  |  | TCRP (Cell Index response) ([6]; A431, from 0 to 20 uM): dose-dependent short-term and long-term decrease in Cell Index; IC50 ([6]; A-431, 72 h): 357 nM; IC50 ([7]; A-431, read-out: IC50 (TCRP, ligand stimulated)): < 27 nM; TCRP (Cell Index response) ([8]; H1975, from 0 to 20 uM): dose-dependent short-term and long-term decrease in Cell Index; IC50 ([8]; NCI-H1975, 72 h): 396 nM; IC50 [5, 12]: ~150 nM
7 | O=c1cc(CN2CCOCC2)occ1OCCCCCSc1ccnc2cc(C(F)(F)F)ccc12 [EHT1864] | None of these inhibitors induced a TCRP similar to PF2341006 |  |  | 
8 | CC1=C(C(=O)Nc2cc3cn[nH]c3cc2F)C(c2ccc(C(F)(F)F)cc2)CC(=O)N1 (stereo not shown) [GSK429286] | None of these inhibitors induced a TCRP similar to PF2341006 |  |  | 
9 | CNC(=O)c1c(F)cccc1Nc1nc(Nc2cc3c(cc2OC)CCN3C(=O)CN(C)C)nc2[nH]ccc12 [GSK1838705A] |  |  |  | IC50 [1]: 137 nM
10 | O=C1Nc2ccc(I)cc2/C1=C/c1cc(Br)c(O)c(Br)c1 [GW5074] | None of these inhibitors induced a TCRP similar to PF2341006 | cell index decreases in both the control cell line and H1047R cell line | cell index decreases in both the control cell line and H1047R cell line | 
11 | Cc1ccc(NC(=O)c2ccc(CN3CCN(C)CC3)cc2)cc1Nc1nccc(-c2cccnc2)n1 [Imatinib] |  |  |  | phospho-MAPK (Western) ([9]; downstream target of PDGFR): down-regulated; PDGFRβ autophosphorylation (Western) ([9]; phospho-PDGFRβ (Y1021)): effectively inhibited
12 | CCCCCCOC(=O)[C@]1(O)C[C@@H]2O[C@@]1(C)n1c3ccccc3c3c4c(c5c6ccccc6n2c5c31)C(=O)NC4 [KT5720] |  | did not introduce significant cell index changes in either cell line | did not introduce significant cell index changes in either cell line | 
13 | COC(=O)[C@@]1(OC)C[C@H]2O[C@]1(C)n1c3ccccc3c3c4c(c5c6ccccc6n2c5c31)C(=O)N(C)C4 [KT5823] |  | did not introduce significant cell index changes in either cell line | did not introduce significant cell index changes in either cell line | 
14 | COc1ccc(-c2ccc3c(N4CCOCC4)nc(N4C[C@@H](C)O[C@@H](C)C4)nc3n2)cc1CO [KU0063794] | None of these inhibitors induced a TCRP similar to PF2341006 | triggered 10T1/2-tva-H1047R specific cell index drop | not present in the control cell line 10T1/2-tva | 
15 | CS(=O)(=O)CCNCc1ccc(-c2ccc3ncnc(Nc4ccc(OCc5cccc(F)c5)c(Cl)c4)c3c2)o1 [Lapatinib] |  |  |  | IC50 [10]: 38.8 nM
16 | COc1cc(N2CCC(N3CCN(C)CC3)CC2)ccc1Nc1ncc(Cl)c(Nc2ccccc2S(=O)(=O)C(C)C)n1 [NVP-TAE684] |  |  |  | IC50 ([1]; Homo sapiens): 10.4 nM
17 | COc1cccc(-c2cc(=O)c3ccccc3o2)c1N [PD98059] | None of these inhibitors induced a TCRP similar to PF2341006 | did not introduce significant cell index changes in either cell line | did not introduce significant cell index changes in either cell line | 
18 | C[C@@H](Oc1cc(-c2cnn(C3CCNCC3)c2)cnc1N)c1c(Cl)ccc(F)c1Cl [PF02341066, Crizotinib] |  |  |  | IC50 ([2]; Homo sapiens, NCI-H1993, 200 h): 3.23 nM; EC50 ([2]; Homo sapiens, NCI-H1993, H1993, short-term (10 hours post compound treatment) CI): 2 nM; IC50 [2]: 1.87 nM
19 | Oc1ccc(-c2nc(-c3ccncc3)c(-c3ccc(F)cc3)[nH]2)cc1 [SB202190] | None of these inhibitors induced a TCRP similar to PF2341006 | did not introduce significant cell index changes in either cell line | did not introduce significant cell index changes in either cell line | 
20 | C[S+]([O-])c1ccc(-c2nc(-c3ccncc3)c(-c3ccc(F)cc3)[nH]2)cc1 (stereo not shown) [SB203580] | None of these inhibitors induced a TCRP similar to PF2341006 |  |  | 
21 | CN[C@@H]1C[C@H]2O[C@@](C)([C@@H]1OC)n1c3ccccc3c3c4c(c5c6ccccc6n2c5c31)C(=O)NC4 [Staurosporine] |  | cell index decreases in both the control cell line and H1047R cell line | cell index decreases in both the control cell line and H1047R cell line | 
22 | CCN(CC)CCNC(=O)c1c(C)[nH]c(/C=C2\C(=O)Nc3ccc(F)cc32)c1C [Sunitinib] |  |  |  | IC50 [11]: 42.2 nM
23 | CO[C@H]1C[C@@H]2CC[C@@H](C)[C@@](O)(O2)C(=O)C(=O)N2CCCC[C@H]2C(=O)O[C@H]([C@H](C)C[C@@H]2CC[C@@H](OC(=O)C(C)(CO)CO)[C@H](OC)C2)CC(=O)[C@H](C)/C=C(\C)[C@@H](O)[C@@H](OC)C(=O)[C@H](C)C[C@H](C)/C=C/C=C/C=C/1C [Temsirolimus] |  | triggered 10T1/2-tva-H1047R specific cell index drop | not present in the control cell line 10T1/2-tva | 
24 | N#CC(=C(/N)Sc1ccccc1N)/C(C#N)=C(\N)Sc1ccccc1N [U0126] | None of these inhibitors induced a TCRP similar to PF2341006 | did not introduce significant cell index changes in either cell line | did not introduce significant cell index changes in either cell line | 
25 | C=CC(=O)Nc1cccc(Oc2nc(Nc3ccc(N4CCN(C)CC4)cc3OC)ncc2Cl)c1 [WZ4002] |  |  |  | IC50 ([6]; A-431, A431 (wild-type EGFR), Long-term (72 hours post compound treatment) CI): 4370 nM; IC50 ([7]; A-431, A431, inhibitor 1 hour, then EGF 30 ng/ml, Normalized Cell Index at 30 minutes after EGF, estimated, read-out: IC50 (TCRP, ligand stimulated)): ~2000 nM; IC50 ([8]; NCI-H1975, H1975 (mutant L858R/T790M EGFR), 72 hours post compound treatment): 560 nM; IC50 [5, 12]: ~1250 nM
26 | CC[C@]1(O)C[C@H]2CN(CCc3c([nH]c4ccccc34)[C@@](C(=O)OC)(c3cc4c(cc3OC)N(C=O)[C@H]3[C@@](O)(C(=O)OC)[C@H](OC(C)=O)[C@]5(CC)C=CCN6CC[C@]43[C@@H]65)C2)C1 [vincristine] |  | cell index decreases in both the control cell line and H1047R cell line | cell index decreases in both the control cell line and H1047R cell line | 
27 | AKT inhibitor IV | None of these inhibitors induced a TCRP similar to PF2341006 |  |  | 
